Reference: patent US9724358B2, “Minocycline compounds and methods of use thereof” (Paratek Pharmaceuticals, Inc., priority 2008, dated 2017)

What was measured:
[1] = test system: MRSA; assay: Phase 2 CSSSI study, clinical outcome by organism: MRSA; type: in vivo, Staphylococcus aureus; settings: for Clinical outcome Failure (number) / Clinical outcome Success (number): ME population, MRSA; for clinical success rate against MRSA: as determined in the trials of the Exemplification
Protocol: (§1) A randomized (1:1), controlled, evaluator-blinded Phase 2 study comparing 9-[(2,2-dimethyl-propyl amino)-methyl-minocycline (compound 1) and linezolid (Zyvox™) for the treatment of complicated skin and skin structure infections (CSSSI) was conducted. Patients with CSSSI who required initial intravenous (IV) therapy and met inclusion and exclusion criteria were enrolled at 11 centers in the US and were randomized to receive either compound 1 (100 mg Q24 h IV with 200 mg Q24 h oral step-down) or linezolid (600 mg Q12 h IV with 600 mg Q12 h oral step-down).
(§2) An infecting pathogen was defined as an isolate derived from the last positive culture taken from the site of infection under study prior to and including day 1.

[2] = Phase 2 CSSSI study, subject disposition (discontinuations); type: in vivo, human; settings: ITT population
Protocol: as §1
(§3) All subjects had four structured evaluations: at Enrollment (Baseline); at End of IV Treatment; at End of Treatment; and at 10 to 17 days after last dose of treatment (test of cure (TOC) evaluation). In addition, the blinded investigator saw each subject daily while they were on IV therapy and at least every 3 days while receiving oral treatment to determine whether to continue current treatment, switch from IV to oral therapy, or discontinue treatment.

[3] = test system: complicated skin and skin structure infections (CSSSI); assay: Phase 2 study in CSSSI, clinical outcome at test of cure; type: in vivo, human
Protocol: as §1, §3
At each of the four structured evaluations, the blinded evaluator assessed the subject, with particular attention to scoring the findings at the primary site of infection and obtaining cultures. Clinical and microbiologic outcomes were determined using these assessments. Primary evaluation criteria was safety and tolerability compared with linezolid. Secondary evaluation criteria was efficacy of compound 1 compared to linezolid, as well as pharmacokinetics of compound 1.
At each scheduled evaluation, the blinded evaluator examined the primary site of infection; for patients with multiple non-contiguous areas of infection, the blinded evaluator identified the most severely affected portion at Enrollment and designated that as the primary site of infection. The following information was recorded for each patient: maximal linear dimension of area of continuous involvement of infection; maximal linear dimension of ulceration, if present; semi-qualitative (scale of 0 to 3; none, mild, marked, severe) description of infection for the following features: erythema, edema/induration, fluctuance, necrotic tissue, purulence (including drainage), and tenderness/pain. In addition, at the Enrollment Evaluation, the following were also recorded the anatomical location of the primary site of infection; and the clinical diagnosis of the type of the infection.
Both the investigational drug, compound 1, and the comparator drug, Zyvox™ were administered intravenously and orally. Patients randomized to linezolid may have received aztreonam IV for suspected or documented gram-negative infection. Subjects were initially treated with study drug IV and then switched to oral therapy. The expected duration of IV treatment was up to 7 days; the expected total duration of treatment (IV and oral) was up to 14 days.
For IV administration, the HCl salt of compound 1 for injection was given as 100 mg in 100 ml sterile saline infused over 30 minutes q24 h. For oral administration, compound 1 100 mg capsules were taken fasting as 2 capsules with 8 oz. water q24 h. No food was to be taken for 30 to 60 minutes after dosing and no dairy products for 4 hours.
Linezolid (Zyvox™) 600 mg tablets and pre-mixed 600 mg IV infusion solution (300 ml volume) were obtained from commercial sources. Linezolid 600 mg IV was administered as a 30 minute infusion.
Efficacy analyses were performed on several populations of subjects. Subjects were analyzed for efficacy according to randomization, regardless of treatment administered.
The Intent-to-Treat (ITT) population includes all enrolled subjects who received at least one dose of study medication.
The modified Intent-to-Treat (mITT) population comprises all subjects in the ITT population who have an Infecting Pathogen isolated at prior to administration of the study compound. […]

[4] = test system: G+ anaerobes; assay: Phase 2 CSSSI study, clinical outcome by organism: G+ anaerobes; type: in vivo, gram-positive anaerobes; settings: ME population
Protocol: as §1, §2

[5] = clinically evaluable population
[6] = microbiologically evaluable population

Row | SMILES | Clinical outcome Failure (number) [1] | Clinical outcome Success (number) [1] | clinical success rate against MRSA [1] [%] | Premature Discontinuation (% of subjects) [2] | Premature Discontinuation (number of subjects) [2] | Premature Discontinuation due to Adverse Event (% of subjects) [2] | Premature Discontinuation due to Adverse Event (number of subjects) [2] | Premature Discontinuation due to Treatment Failure (number of subjects) [2] | Clinical Failure (% of subjects) ([3]; ITT population) | Clinical Failure (number of subjects) ([3]; ITT population) | Clinical Failure: Failure (% of subjects) ([3]; ITT population) | Clinical Failure: Failure (number of subjects) ([3]; ITT population) | Clinical Failure: Nonevaluable (% of subjects) ([3]; ITT population) | Clinical Failure: Nonevaluable (number of subjects) ([3]; ITT population) | Clinical Success (% of subjects) ([3]; ITT population) | Clinical Success (number of subjects) ([3]; ITT population) | Clinical Failure (% of subjects) [3, 5] [%] | Clinical Failure (number of subjects) [3, 5] | Clinical Success (% of subjects) [3, 5] [%] | Clinical Success (number of subjects) [3, 5] | other results
1 | CC(=O)NCC1CN(c2ccc(N3CCOCC3)c(F)c2)C(=O)O1 (stereo not shown) [Linezolid, N-[[3-(3-fluoro-4-morpholinophenyl)-2-oxooxazolidin-5-yl]methyl]acetamide, reference compound] | 2 | 30 | 93 | (7.4%) | 8 | (1.9%) | 2 | 0 | 24.1% | 26 | 5.6% | 6 | 18.5% | 20 | 75.9% | 82 | 6.8 | 6 | 93.2 | 82 | Clinical Failure (% of subjects) ([3]; mITT population): 24.4%; Clinical Failure (number of subjects) ([3]; mITT population): 19; Clinical Failure: Failure (% of subjects) ([3]; mITT population): 5.1%; Clinical Failure: Failure (number of subjects) ([3]; mITT population): 4; Clinical Failure: Nonevaluable (% of subjects) ([3]; mITT population): 19.2%; Clinical Failure: Nonevaluable (number of subjects) ([3]; mITT population): 15; Clinical Success (% of subjects) ([3]; mITT population): 75.6%; Clinical Success (number of subjects) ([3]; mITT population): 59; Clinical Failure (% of subjects) [3, 6]: 6.3%; Clinical Failure (number of subjects) [3, 6]: 4; Clinical Success (% of subjects) [3, 6]: 93.7%; Clinical Success (number of subjects) [3, 6]: 59; Clinical outcome Failure (number) [4]: 0; Clinical outcome Success (number) [4]: 3
2 | CN(C)c1cc(CNCC(C)(C)C)c(O)c2c1C[C@H]1C[C@H]3[C@H](N(C)C)C(O)=C(C(N)=O)C(=O)[C@@]3(O)C(O)=C1C2=O [Compound 1, 9-[(2,2-dimethyl-propylamino)-methyl]-minocycline] | 0 | 42 | 100 | (4.5%) | 5 | (0.9%) | 1 | 1 | (11.7%) | 13 | (1.8%) | 2 | (9.9%) | 11 | (88.3%) | 98 | 2.0 | 2 | 98.0 | 98 | Clinical outcome Failure (number) ([1]; listed as compound 1): none; Premature Discontinuation due to Treatment Failure (% of subjects) [2]: (0.9%); Premature Discontinuation due to Adverse Event (number of subjects) ([2]; listed as compound 1): no discontinuations; Clinical Success (% of subjects) ([3]; ITT population, listed as compound 1): 88.3%; Clinical Success (% of subjects) ([3]; clinically evaluable population, listed as compound 1): 98%; Clinical Failure (% of subjects) ([3]; mITT population): (10.7%); Clinical Failure (number of subjects) ([3]; mITT population): 9; Clinical Failure: Failure (% of subjects) ([3]; mITT population): (2.4%); Clinical Failure: Failure (number of subjects) ([3]; mITT population): 2; Clinical Failure: Nonevaluable (% of subjects) ([3]; mITT population): (8.3%); Clinical Failure: Nonevaluable (number of subjects) ([3]; mITT population): 7; Clinical Success (% of subjects) ([3]; mITT population): (89.3%); Clinical Success (number of subjects) ([3]; mITT population): 75; Clinical Failure (% of subjects) [3, 6]: 2.6%; Clinical Failure (number of subjects) [3, 6]: 2; Clinical Success (% of subjects) [3, 6]: 97.4%; Clinical Success (number of subjects) [3, 6]: 75; Clinical outcome Failure (number) [4]: 0; Clinical outcome Success (number) [4]: 0
